Earlier results as cited in patent US20090291958A1, “Substituted PDE5 inhibitors” (Auspex Pharmaceuticals, Inc., priority 2006, published 2009).

Tests used:
PDE5 versus PDE6 = conditions: compared with sildenafil and vardenafil
PDE6 = conditions: share of patients; attributed to PDE6 modulation
[1] = in vivo
[2] = in vivo; remark: listed apart in the source

Compound: CN1CC(=O)N2[C@H](c3ccc4c(c3)OCO4)c3[nH]c4ccccc4c3C[C@@H]2C1=O [tadalafil, Tadalafil]
- selectivity for PDE5 versus PDE6 (PDE5 versus PDE6): much more selective than sildenafil and vardenafil
- patients with side effects of chromatopsia, increased sensitivity to light, and blurred vision (PDE6): less than 0.1%
- exercise tolerance [1]: improve exercise tolerance
- rate of myocardial infarction [1]: lower rate of myocardial infarction than placebo
- half-life [2]: 17.5 h
